Test: Stability of cannabinoid and Vitamin E components of Beverage 1 (AB White) stored at 8° C. and 21-25° C., LCMSMS over 570 days
Type: physicochemical
Conditions: for Chemical stability over the entire period (result in words): AB White, 570 days; for Stability in AB White, 8° C. (content by LCMSMS): beverage stored at 8° C.; for Stability in AB White, 21-25° C. (content by LCMSMS): beverage stored at 21-25° C.
Description: The LCMSMS was calibrated for 0-1000 ng/ml cannabinoids with the same resin material used in the preparation of the concentrates. At each time period, 100 ml of beverage was diluted with 10 ml of methanol and injected into the LCMSMS for analysis.

CCCCCc1cc(O)c2c(c1)OC(C)(C)[C@@H]1CCC(C)=C[C@@H]21 [D9 THC, delta-9-tetrahydrocannabinol, reference compound]
Chemical stability over the entire period (result in words) (stored at 8° C.): high degree of stability | Chemical stability over the entire period (result in words) (stored at 21-25° C.): high degree of stability | Stability in AB White, 8° C. (content by LCMSMS) (day 0): 12.2 µg/mL | Stability in AB White, 8° C. (content by LCMSMS) (day 1): 12.20 µg/mL | Stability in AB White, 8° C. (content by LCMSMS) (day 2): 11.91 µg/mL | Stability in AB White, 8° C. (content by LCMSMS) (day 3): 12.25 µg/mL | Stability in AB White, 8° C. (content by LCMSMS) (day 5): 12.11 µg/mL | Stability in AB White, 8° C. (content by LCMSMS) (day 8): 11.83 µg/mL | Stability in AB White, 8° C. (content by LCMSMS) (day 9): 12.14 µg/mL | Stability in AB White, 8° C. (content by LCMSMS) (day 10): 12.07 µg/mL | Stability in AB White, 8° C. (content by LCMSMS) (day 11): 11.83 µg/mL | Stability in AB White, 8° C. (content by LCMSMS) (day 12): 11.88 µg/mL | Stability in AB White, 8° C. (content by LCMSMS) (day 15): 12.08 µg/mL | Stability in AB White, 8° C. (content by LCMSMS) (day 16): 12.18 µg/mL | Stability in AB White, 8° C. (content by LCMSMS) (day 17): 12.05 µg/mL | Stability in AB White, 8° C. (content by LCMSMS) (day 18): 12.00 µg/mL | Stability in AB White, 8° C. (content by LCMSMS) (day 19): 12.11 µg/mL | Stability in AB White, 8° C. (content by LCMSMS) (day 22): 11.97 µg/mL | Stability in AB White, 8° C. (content by LCMSMS) (day 23): 12.03 µg/mL | Stability in AB White, 8° C. (content by LCMSMS) (day 24): 11.87 µg/mL | Stability in AB White, 8° C. (content by LCMSMS) (day 25): 11.99 µg/mL | Stability in AB White, 8° C. (content by LCMSMS) (day 26): 11.97 µg/mL | Stability in AB White, 8° C. (content by LCMSMS) (day 29): 12.25 µg/mL | Stability in AB White, 8° C. (content by LCMSMS) (day 30): 12.05 µg/mL | Stability in AB White, 8° C. (content by LCMSMS) (day 60): 11.77 µg/mL | Stability in AB White, 8° C. (content by LCMSMS) (day 90): 11.92 µg/mL | Stability in AB White, 8° C. (content by LCMSMS) (day 120): 11.79 µg/mL | Stability in AB White, 8° C. (content by LCMSMS) (day 150): 12.07 µg/mL | Stability in AB White, 8° C. (content by LCMSMS) (day 180): 11.66 µg/mL | Stability in AB White, 8° C. (content by LCMSMS) (day 210): 11.79 µg/mL | Stability in AB White, 8° C. (content by LCMSMS) (day 240): 11.70 µg/mL | Stability in AB White, 8° C. (content by LCMSMS) (day 270): 11.98 µg/mL | Stability in AB White, 8° C. (content by LCMSMS) (day 300): 11.70 µg/mL | Stability in AB White, 8° C. (content by LCMSMS) (day 330): 11.68 µg/mL | Stability in AB White, 8° C. (content by LCMSMS) (day 360): 11.88 µg/mL | Stability in AB White, 8° C. (content by LCMSMS) (day 390): 11.85 µg/mL | Stability in AB White, 8° C. (content by LCMSMS) (day 420): 11.77 µg/mL | Stability in AB White, 8° C. (content by LCMSMS) (day 450): 11.80 µg/mL | Stability in AB White, 8° C. (content by LCMSMS) (day 480): 11.60 µg/mL | Stability in AB White, 8° C. (content by LCMSMS) (day 510): 11.33 µg/mL | Stability in AB White, 8° C. (content by LCMSMS) (day 540): 11.27 µg/mL | Stability in AB White, 8° C. (content by LCMSMS) (day 570): 11.21 µg/mL | Stability in AB White, 21-25° C. (content by LCMSMS) (day 0): 12.2 µg/mL | Stability in AB White, 21-25° C. (content by LCMSMS) (day 1): 11.8 µg/mL | Stability in AB White, 21-25° C. (content by LCMSMS) (day 2): 12.0 µg/mL | Stability in AB White, 21-25° C. (content by LCMSMS) (day 3): 11.9 µg/mL | Stability in AB White, 21-25° C. (content by LCMSMS) (day 5): 12.1 µg/mL | Stability in AB White, 21-25° C. (content by LCMSMS) (day 8): 12.3 µg/mL | Stability in AB White, 21-25° C. (content by LCMSMS) (day 9): 11.8 µg/mL | Stability in AB White, 21-25° C. (content by LCMSMS) (day 10): 11.7 µg/mL | Stability in AB White, 21-25° C. (content by LCMSMS) (day 11): 12.1 µg/mL | Stability in AB White, 21-25° C. (content by LCMSMS) (day 12): 11.9 µg/mL | Stability in AB White, 21-25° C. (content by LCMSMS) (day 15): 12.1 µg/mL | Stability in AB White, 21-25° C. (content by LCMSMS) (day 16): 12.1 µg/mL | Stability in AB White, 21-25° C. (content by LCMSMS) (day 17): 11.9 µg/mL | Stability in AB White, 21-25° C. (content by LCMSMS) (day 18): 11.8 µg/mL | Stability in AB White, 21-25° C. (content by LCMSMS) (day 19): 12.3 µg/mL | Stability in AB White, 21-25° C. (content by LCMSMS) (day 22): 11.9 µg/mL | Stability in AB White, 21-25° C. (content by LCMSMS) (day 23): 12.0 µg/mL | Stability in AB White, 21-25° C. (content by LCMSMS) (day 24): 12.1 µg/mL | Stability in AB White, 21-25° C. (content by LCMSMS) (day 25): 12.3 µg/mL | Stability in AB White, 21-25° C. (content by LCMSMS) (day 26): 12.1 µg/mL | Stability in AB White, 21-25° C. (content by LCMSMS) (day 29): 11.9 µg/mL | Stability in AB White, 21-25° C. (content by LCMSMS) (day 30): 11.9 µg/mL | Stability in AB White, 21-25° C. (content by LCMSMS) (day 60): 11.9 µg/mL | Stability in AB White, 21-25° C. (content by LCMSMS) (day 90): 12.0 µg/mL | Stability in AB White, 21-25° C. (content by LCMSMS) (day 120): 11.7 µg/mL | Stability in AB White, 21-25° C. (content by LCMSMS) (day 150): 11.7 µg/mL | Stability in AB White, 21-25° C. (content by LCMSMS) (day 180): 11.9 µg/mL | Stability in AB White, 21-25° C. (content by LCMSMS) (day 210): 11.4 µg/mL | Stability in AB White, 21-25° C. (content by LCMSMS) (day 240): 11.7 µg/mL | Stability in AB White, 21-25° C. (content by LCMSMS) (day 270): 11.9 µg/mL | Stability in AB White, 21-25° C. (content by LCMSMS) (day 300): 12.0 µg/mL | Stability in AB White, 21-25° C. (content by LCMSMS) (day 330): 11.4 µg/mL | Stability in AB White, 21-25° C. (content by LCMSMS) (day 360): 11.7 µg/mL | Stability in AB White, 21-25° C. (content by LCMSMS) (day 390): 11.4 µg/mL | Stability in AB White, 21-25° C. (content by LCMSMS) (day 420): 11.7 µg/mL | Stability in AB White, 21-25° C. (content by LCMSMS) (day 450): 11.7 µg/mL | Stability in AB White, 21-25° C. (content by LCMSMS) (day 480): 11.2 µg/mL | Stability in AB White, 21-25° C. (content by LCMSMS) (day 510): 11.2 µg/mL | Stability in AB White, 21-25° C. (content by LCMSMS) (day 540): 11.2 µg/mL | Stability in AB White, 21-25° C. (content by LCMSMS) (day 570): 11.2 µg/mL
